In US20180002288A1, “USE OF PICOLINAMIDES AS FUNGICIDES” (DOW AGROSCIENCES LLC, priority 2014, published 2018):
Where two headings read alike, the source gives them in different places.

Legend:
[1] = system: Phakopsora pachyrhizi; experiment: Asian Soybean Rust fungicidal activity (PHAKPA); details: Phakopsora pachyrhizi, in Glycine max
[2] = system: Leptosphaeria nodorum; experiment: Wheat Glume Blotch fungicidal activity (LEPTNO); type: in vivo; details: Parastagonospora nodorum, 24 h, high volume, 1 Day Protectant, read-out: LEPTNO % Control rating
Method: All fungicides were evaluated using the aforementioned method for their activity vs. all target diseases, unless stated otherwise. Wheat leaf blotch and brown rust activity were also evaluated using track spray applications, in which case the fungicides were formulated as EC formulations, containing 0.1% Trycol 5941 in the spray solutions. Wheat plants (variety Yuma) were grown from seed in a greenhouse in 50% mineral soil/50% soil-less Metro mix until the first leaf was fully emerged, with 7-10 seedlings per pot. These plants were inoculated with an aqueous spore suspension of Zymoseptoria tritici either prior to or after fungicide treatments. After inoculation the plants were kept in 100% relative humidity (one day in a dark dew chamber followed by two to three days in a lighted dew chamber at 20° C.) to permit spores to germinate and infect the leaf. The plants were then transferred to a greenhouse set at 20° C. for disease to develop. When disease symptoms were fully expressed on the 1st leaves of untreated plants, infection levels were assessed on a scale of 0 to 100 percent disease severity. Percent disease control was calculated using the ratio of disease severity on treated plants relative to untreated plants. Wheat plants (variety Yuma) were grown from seed in a greenhouse in 50% mineral soil/50% soil-less Metro mix until the first leaf was fully emerged, with 7-10 seedlings per pot. These plants were inoculated with an aqueous spore suspension of Leptosphaeria nodorum 24 hr after fungicide treatments. After inoculation the plants were kept in 100% relative humidity (one day in a dark dew chamber followed by two days in a lighted dew chamber at 20° C.) to permit spores to germinate and infect the leaf. The plants were then transferred to a greenhouse set at 20° C. for disease to develop. Fungicide formulation, application and disease assessment followed the procedures as described in the Example A.

[3] = system: Cercospora beticola; experiment: Leaf Spot of Sugar Beets fungicidal activity (CERCBE); type: in vivo; details: 24 h, sugar beet, high volume, 1 Day Protectant, read-out: CERCBE % Control rating
Method: All fungicides were evaluated using the aforementioned method for their activity vs. all target diseases, unless stated otherwise. Wheat leaf blotch and brown rust activity were also evaluated using track spray applications, in which case the fungicides were formulated as EC formulations, containing 0.1% Trycol 5941 in the spray solutions. Wheat plants (variety Yuma) were grown from seed in a greenhouse in 50% mineral soil/50% soil-less Metro mix until the first leaf was fully emerged, with 7-10 seedlings per pot. These plants were inoculated with an aqueous spore suspension of Zymoseptoria tritici either prior to or after fungicide treatments. After inoculation the plants were kept in 100% relative humidity (one day in a dark dew chamber followed by two to three days in a lighted dew chamber at 20° C.) to permit spores to germinate and infect the leaf. The plants were then transferred to a greenhouse set at 20° C. for disease to develop. When disease symptoms were fully expressed on the 1st leaves of untreated plants, infection levels were assessed on a scale of 0 to 100 percent disease severity. Percent disease control was calculated using the ratio of disease severity on treated plants relative to untreated plants. Sugar beet plants (variety HH88) were grown in soil-less Metro mix and trimmed regularly to maintain a uniform plant size prior to test. Plants were inoculated with a spore suspension 24 hr after fungicide treatments. Inoculated plants were kept in a dew chamber at 22° C. for 48 hr then incubated in a greenhouse set at 24° C. under a clear plastic hood with bottom ventilation until disease symptoms were fully expressed. Fungicide formulation, application and disease assessment on the sprayed leaves followed the procedures as described in the Example A.

[4] = system: Puccinia triticina; experiment: Wheat Brown Rust fungicidal activity (PUCCRT); type: in vivo; details: Low Volume Cereal Activity at 121.5 g/Ha
[5] = system: Zymoseptoria tritici; experiment: Leaf Blotch of Wheat fungicidal activity (SEPTTR); type: in vivo; details: Low Volume Cereal Activity at 121.5 g/Ha
[6] = 24 h, read-out: PHAKPA 1DP % Control rating, soybean, high volume, 25 ppm, 1 Day Protectant
[7] = 72 h, read-out: PHAKPA 3DC % Control rating, soybean, high volume, 25 ppm, 3 Day Curative
[8] = 24 h, 1 Day Protectant, read-out: PUCCRT 1DP (Wheat Brown Rust, 1 Day Protectant)
[9] = 72 h, 3 Day Curative, read-out: PUCCRT 3DC (Wheat Brown Rust, 3 Day Curative)
[10] = 24 h, 1 Day Protectant, read-out: SEPTTR 1DP (Wheat Leaf Blotch, 1 Day Protectant)
[11] = 72 h, 3 Day Curative, read-out: SEPTTR 3DC (Wheat Leaf Blotch, 3 Day Curative)

| SMILES | pest or weed control at 25 ppm [1, 6] | pest or weed control at 25 ppm [1, 7] | pest or weed control at 100 ppm [2] | pest or weed control at 100 ppm [3] | pest or weed control at 121.5 g/ha [4, 8] | pest or weed control at 121.5 g/ha [4, 9] | pest or weed control at 121.5 g/ha [5, 10] | pest or weed control at 121.5 g/ha [5, 11] |
| --- | --- | --- | --- | --- | --- | --- | --- | --- |
| COc1ccnc(C(=O)N[C@@H](C)C(=O)O[C@@H](C)[C@H](Oc2cccc(F)c2)c2ccccc2)c1OCOC(C)=O [Example 187] | > 80% | < 80% | > 80% | > 80% | > 80% | > 80% | > 80% | > 80% |
| COc1ccnc(C(=O)N[C@@H](C)C(=O)O[C@@H](C)[C@H](Oc2ccccc2)c2ccc(F)cc2Cl)c1OCOC(C)=O [Example 260] | > 80% | < 80% | > 80% | > 80% | > 80% | > 80% | > 80% | > 80% |
| COc1cc(F)ccc1[C@@H](Oc1ccccc1)[C@H](C)OC(=O)[C@H](C)NC(=O)c1nccc(OC)c1OCOC(C)=O [Example 256] | > 80% | < 0% | > 80% | > 80% | > 80% | > 80% | > 80% | > 80% |
| COc1ccnc(C(=O)N[C@@H](C)C(=O)O[C@@H](C)C(Oc2ccc(F)cc2)c2ccccc2)c1OC(C)=O (stereo partly shown) [Example 236] | > 80% | < 0% | > 80% | > 80% | > 80% | > 80% | > 80% | > 80% |
| COc1ccccc1[C@@H](Oc1ccccc1)[C@H](C)OC(=O)[C@H](C)NC(=O)c1nccc(OC)c1OCOC(C)=O [Example 255] | > 80% | < 0% | > 80% | > 80% | > 80% | > 80% | > 80% | > 80% |
| COc1ccnc(C(=O)N[C@@H](C)C(=O)O[C@@H](C)[C@H](Oc2ccc(F)cc2)c2ccccc2)c1OCOC(C)=O [Example 237] | < 80% | < 80% | > 80% | > 80% | > 80% | > 80% | > 80% | > 80% |
| COc1ccnc(C(=O)N[C@@H](C)C(=O)O[C@@H](C)[C@H](Oc2ccc(F)cc2)c2ccccc2)c1OC(C)=O [Example 235] | < 80% | < 80% | > 80% | > 80% | > 80% | > 80% | > 80% | > 80% |
| COc1ccnc(C(=O)N[C@@H](C)C(=O)O[C@@H](C)C(Oc2ccc(F)cc2)c2ccc(F)cc2)c1OCOC(C)=O (stereo partly shown) [Example 238] | < 80% | < 80% | > 80% | > 80% | > 80% | > 80% | > 80% | > 80% |
